These results are taken from patent US3939143A, “1-N-isoserylkanamycins and the production thereof” (Zaidan Hojin Biseibutsu Kagaku Kenkyu Kai, priority 1973, dated 1976).

The test system of assay [1] is Escherichia coli JR66/W677. The settings on record: nucleotidyltransferase-producing resistant strain; cited from earlier work.
Assay [2] deals with Escherichia coli K-12 ML 1410 R81. Put plainly: Minimum inhibitory concentration, serial dilution on nutrient agar. The class given is cell-based. The following applies: 18 h, read-out: Minimum Inhibitory Concentration.
In assay [3] the test system is Escherichia coli NIHJ. The assay is described as above. The class given is cell-based. The settings on record: 37°C, 18 hours, read-out: Minimum Inhibitory Concentration.
The subject of assay [4] is Shigella dysenteriae JS 11910. The assay is described as above. It counts as cell-based. The settings on record: JS11910, 18 h, read-out: Minimum Inhibitory Concentration.
For assay [5], the system named is Escherichia coli K-12 ML 1410. The assay is described as above. The class given is cell-based. The settings on record: K12ML1410, 18 h, read-out: Minimum Inhibitory Concentration.
Assay [6] deals with phosphotransferase. The following applies: phosphorylation of the 3'-hydroxyl group; cited from earlier work.
Assay [7] concerns Salmonella enteritidis 1891. Put plainly: Minimum inhibitory concentration, serial dilution on nutrient agar. The settings on record: Salmonella enterica, 18 h, read-out: Minimum Inhibitory Concentration. It counts as cell-based.
Assay [8] concerns Staphylococcus aureus FDA 209P. Described as above. The class given is cell-based. The settings on record: FDA209P, 37°C, 18 hours, read-out: Minimum Inhibitory Concentration.
Assay [9] concerns Pseudomonas aeruginosa GN315. The description is as above. It counts as cell-based. The settings on record: GN315, 37°C, 18 hours, read-out: Minimum Inhibitory Concentration.
Assay [10] deals with Bacillus subtilis PCI 219. The assay is described as above. The settings on record: PCI219, 37°C, 18 hours, read-out: Minimum Inhibitory Concentration. The class given is cell-based.
The test system of assay [11] is Klebsiella pneumoniae PCI 602. The description is as above. The class given is cell-based. The settings on record: PCI602, 37°C, 18 hours, read-out: Minimum Inhibitory Concentration.
For assay [12], the system named is Bacillus subtilis NRRL B-558. The assay is described as above. It counts as cell-based. The following applies: NRRLB558, 37°C, 18 hours, read-out: Minimum Inhibitory Concentration.
The subject of assay [13] is Escherichia coli LA290 R64. The description is as above. It counts as cell-based. The settings on record: LA290R64, 18 h, read-out: Minimum Inhibitory Concentration.
The subject of assay [14] is Escherichia coli W677. Described as above. It counts as cell-based. The settings on record: W677, 37°C, 18 hours, read-out: Minimum Inhibitory Concentration.
The test system of assay [15] is Escherichia coli LA290 R55. Described as above. The class given is cell-based. The following applies: LA290R55, 18 h, read-out: Minimum Inhibitory Concentration.
Assay [16] concerns Bacillus anthracis. Briefly: microbe, parasite or virus in culture. It counts as cell-based. The following applies: 18 h, read-out: Minimum Inhibitory Concentration.
Assay [17] deals with Corynebacterium bovis 1810. Put plainly: Minimum inhibitory concentration, serial dilution on nutrient agar. It counts as cell-based. The following applies: Corynebacterium bovis, 1810; 37°C, 18 hours; read-out: Minimum Inhibitory Concentration.
The subject of assay [18] is Escherichia coli K-12. Described as above. The class given is cell-based. The settings on record: K12, 37°C, 18 hours, read-out: Minimum Inhibitory Concentration.
The test system of assay [19] is Staphylococcus aureus Smith. Described as above. The following applies: 37°C, 18 hours, read-out: Minimum Inhibitory Concentration. The class given is cell-based.
The subject of assay [20] is Pseudomonas aeruginosa A3. The description is as above. It counts as cell-based. The settings on record: 37°C, 18 hours. On the procedure: (§1) The minimum inhibitory concentrations (mcg/ml) of 1-N-DL-isoserylkanamycin,1-N-DL-isoserylkanamycin B and 1-N-DL-isoseryl-3',4'-dideoxykanamycin B against various microorganisms were determined according to the serial dilution method using nutrient agar medium at 37°C, the estimation being effected after 18 hours incubation. For comparison purposes, the minimum inhibitory concentrations of kanamycin, kanamycin B and 3',4'-dideoxykanamycin B were also determined in the same manner and under the same conditions as mentioned above.
(§2) The antibacterial spectra of 1-N-DL-isoseryl-kanamycin (abbreviated as 1-IS-KM), 1-N-DL-isoseryl-kanamycin B (abbreviated as 1-IS-KMB) and 1-N-DL-isoseryl-3',4'-dideoxykanamycin B (abbreviated as 1-IS-DKB) are shown in the following table together with those of kanamycin (abbreviatedas KM), kanamycin B (abbreviated as KMB) and 3',4'-dideoxykanamycin B (abbreviated as DKB).

Assay [21] has as its system Shigella sonnei JS 11746. Described as above. The settings on record: JS11746, 37°C, 18 hours. It counts as cell-based. On the procedure: as §1, §2
For assay [22], the system named is Escherichia coli K-12 ML 1630. The assay is described as above. It counts as cell-based. The settings on record: K12ML1630, 37°C, 18 hours. On the procedure: as §1, §2
Assay [23] deals with Pseudomonas aeruginosa TI-13. Described as above. It counts as cell-based. The settings on record: TI13, 37°C, 18 hours. The method, then: as §1, §2
Assay [24] relates to Shigella flexneri 4b JS 11811. Described as above. The class given is cell-based. The following applies: 4BJS11811, 37°C, 18 hours. On the procedure:
as §1, §2

Assay [25] deals with Mycobacterium smegmatis ATCC 607. The assay is described as above. It counts as cell-based. The following applies: Mycolicibacterium smegmatis, ATCC607; 37°C, 18 hours; read-out: Minimum Inhibitory Concentration.
In assay [26] the test system is Salmonella typhosa T-63. The description is as above. The class given is cell-based. The following applies: Salmonella enterica, 18 h, read-out: Minimum Inhibitory Concentration.
In assay [27] the test system is kanamycin-resistant strains. The settings on record: phosphotransferase-producing resistant strains; cited from earlier work.
Assay [28] relates to Pseudomonas aeruginosa No.12. Put plainly: Minimum inhibitory concentration, serial dilution on nutrient agar. The class given is cell-based. The following applies: NO.12, 37°C, 18 hours, read-out: Minimum Inhibitory Concentration.
In assay [29] the test system is Sarcina lutea PCI 1001. The assay is described as above. The settings on record: Micrococcus luteus, PCI1001; 37°C, 18 hours; read-out: Minimum Inhibitory Concentration. The class given is cell-based.
Assay [30] has as its system Pseudomonas aeruginosa 99. The description is as above. The following applies: Pseudomonas aeruginosa, 99; 37°C, 18 hours; read-out: Minimum Inhibitory Concentration. The class given is cell-based.
Assay [31] relates to Klebsiella pneumoniae 22 No. 3038. Described as above. The class given is cell-based. The settings on record: 22NO.3038, 37°C, 18 hours, read-out: Minimum Inhibitory Concentration.
Assay [32] deals with nucleotidyltransferase. The following applies: adenylylation of 2"-hydroxyl group with ATP; cited from earlier work.
Assay [33] concerns Proteus vulgaris OX 19. Briefly: Minimum inhibitory concentration, serial dilution on nutrient agar. It counts as cell-based. The settings on record: OX19, 37°C, 18 hours, read-out: Minimum Inhibitory Concentration.
Assay [34] has as its system Bacillus cereus ATCC 10702. The description is as above. The class given is cell-based. The settings on record: ATCC10702, 37°C, 18 hours, read-out: Minimum Inhibitory Concentration.
Assay [35] deals with Staphylococcus aureus Terajima. Described as above. The class given is cell-based. The following applies: 37°C, 18 hours, read-out: Minimum Inhibitory Concentration.
Assay [36] concerns Escherichia coli LA290 R56. Described as above. It counts as cell-based. The settings on record: LA290R56, 18 h, read-out: Minimum Inhibitory Concentration.
Assay [37] has as its system Escherichia coli K-12 ML 1629. The assay is described as above. The class given is cell-based. The following applies: K12ML1629, 37°C, 18 hours, read-out: Minimum Inhibitory Concentration.
The test system of assay [38] is Escherichia coli JR66/W677. Described as above. The class given is cell-based. The following applies: JR66/W677, 37°C, 18 hours, read-out: Minimum Inhibitory Concentration.
Assay [39] deals with kanamycin- and ribostamycin-resistant bacteria. The following applies: some kanamycin- and ribostamycin-resistant bacteria; cited from earlier work.

Values after ≈ are worked out from the molar mass of the structure shown.

As to `NC[C@@H]1CC[C@@H](N)[C@@H](O[C@H]2[C@H](O)[C@@H](O[C@H]3O[C@H](CO)[C@@H](O)[C@H](N)[C@H]3O)[C@H](N)C[C@@H]2N)O1` [DKB, 3',4'-dideoxykanamycin B, reference compound], the “activity against Escherichia coli JR66/W677” value in assay [1] is “inactive”. For the same compound, the MIC in assay [2] is 1.56 µg/mL (≈ 3.45 µM); in assay [3] it was 0.39 µg/mL (≈ 0.864 µM); in [4] it was 1.56 µg/mL (≈ 3.45 µM); in assay [5] it was 1.56 µg/mL (≈ 3.45 µM); in [7], 1.56 µg/mL (≈ 3.45 µM); in assay [8] it was less than 0.2 µg/mL. Further, the MIC was more than 100 µg/mL in [9]; less than 0.2 µg/mL in [10]; 0.39 µg/mL (≈ 0.864 µM) in assay [11]; less than 0.2 µg/mL in assay [12]; 6.25 µg/mL (≈ 13.8 µM) in assay [13]; 0.2 µg/mL (≈ 0.443 µM) in assay [14]. Also, the MIC is 50 µg/mL (≈ 111 µM) in [15]; less than 0.2 µg/mL in assay [16]; 3.13 µg/mL (≈ 6.93 µM) in [17]; 0.78 µg/mL (≈ 1.73 µM) in [18]; less than 0.2 µg/mL in assay [19]; 1.56 µg/mL (≈ 3.45 µM) in assay [20]. The MIC in assay [21] was 0.78 µg/mL (≈ 1.73 µM); in assay [22], 0.78 µg/mL (≈ 1.73 µM); in [23] it was 1.56 µg/mL (≈ 3.45 µM); in assay [24] it was 1.56 µg/mL (≈ 3.45 µM); in assay [25], 0.39 µg/mL (≈ 0.864 µM); in [26] it was less than 0.2 µg/mL. For the same compound, the MIC in [28] was 0.78 µg/mL (≈ 1.73 µM); in assay [29], 6.25 µg/mL (≈ 13.8 µM); in [30] it was 3.13 µg/mL (≈ 6.93 µM); in assay [31], 100 µg/mL (≈ 221 µM); in assay [33], less than 0.2 µg/mL; in assay [34], 0.78 µg/mL (≈ 1.73 µM). Moreover, the MIC in [35] was less than 0.2 µg/mL; in assay [36] it was 12.5 µg/mL (≈ 27.7 µM); in [37], 0.78 µg/mL (≈ 1.73 µM); in [38], 50 µg/mL (≈ 111 µM). Further, the “susceptibility to / inactivation by phosphotransferase” value in assay [6] is reported as “not susceptible”. In assay [27], the “activity against kanamycin-resistant strains” value is listed as “actually effective”. For the same compound, in [32], the inactivation by nucleotidyltransferase entry is “inactivating”.

On to `NCC[C@H](O)C(=O)N[C@@H]1C[C@H](N)[C@@H](O[C@H]2O[C@H](CN)[C@@H](O)[C@H](O)[C@H]2N)[C@H](O[C@@H]2O[C@H](CO)[C@@H](O)[C@H]2O)[C@H]1O` [butirosin B, 1-N-[(S)-4-amino-2-hydroxy-n-butyryl]-ribostamycin], for which, in [39], the “activity against resistant bacteria” value is listed as “active”.
